The record followed here is US12662489B2 (Sitryx Therapeutics Limited, priority 2023, dated 2026).

Assay [1] concerns the target T1, MTHFD1 recombinant human enzyme (Homo sapiens, UniProt P11586).
T1 sequence (P11586 2-291 limits assumed): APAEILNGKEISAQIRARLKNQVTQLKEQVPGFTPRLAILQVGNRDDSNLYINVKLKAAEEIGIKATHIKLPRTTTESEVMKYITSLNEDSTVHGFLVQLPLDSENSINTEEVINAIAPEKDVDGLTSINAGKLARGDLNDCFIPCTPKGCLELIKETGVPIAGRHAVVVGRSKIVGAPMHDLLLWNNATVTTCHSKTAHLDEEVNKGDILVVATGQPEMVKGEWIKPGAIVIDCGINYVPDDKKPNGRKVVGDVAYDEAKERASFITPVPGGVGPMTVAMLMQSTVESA
The assay is described as follows: MTHFD1 inhibition assay (NAD(P)H-Glo luminescence). The settings on record: MTHFD1 IC50, recombinant human enzyme 200 nM, NADP, band.

Assay [2] has as its target T2, MTHFD2 recombinant human enzyme (Homo sapiens, UniProt P13995).
T2 sequence (P13995 36-350): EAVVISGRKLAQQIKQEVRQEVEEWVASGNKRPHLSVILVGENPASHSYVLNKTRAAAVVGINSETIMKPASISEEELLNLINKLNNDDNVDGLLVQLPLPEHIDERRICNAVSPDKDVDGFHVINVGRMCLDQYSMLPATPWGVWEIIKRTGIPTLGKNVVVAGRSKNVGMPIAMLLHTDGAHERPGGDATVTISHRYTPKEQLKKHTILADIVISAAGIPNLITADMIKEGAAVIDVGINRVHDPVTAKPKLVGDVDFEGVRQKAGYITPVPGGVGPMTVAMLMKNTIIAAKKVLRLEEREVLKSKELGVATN
The assay is described as follows: MTHFD2 inhibition assay (NAD(P)H-Glo luminescence). As to conditions: for MTHFD1/MTHFD2 IC50 ratio: selectivity of MTHFD2 inhibition over MTHFD1, band.

Usually IC50 stands for the concentration needed to halve the response being measured.

Bounds are passed on as bounds.

As for `COC[C@H]1CN(c2cc(C)c3c4c(c(=O)oc3c2C)CN(C(=O)c2ccc(C(=O)NS(=O)(=O)C3(C)CC3)c(OC3CCC3)c2C)CC4)CCN1C` [Example 180, (R)-2-cyclobutoxy-4-(8-(3-(methoxymethyl)-4-methylpiperazin-1-yl)-7,10-dimethyl-5-oxo-1,3,4,5-tetrahydro-2H-chromeno[3,4-c]pyridine-3-carbonyl)-3-methyl-N-((1-methylcyclopropyl)sulfonyl)benzamide], in assay [1], the IC50 was 100 to 1000 nM. In assay [2], the IC50 fell in the range of 10 to 100 nM and the “MTHFD1/MTHFD2 IC50 ratio” value is given as “G (^ 3 to 9.0)”.

Take `COC[C@H]1CN(c2cc(C)c3c4c(c(=O)oc3c2C)CN(C(=O)c2cc(N(C)C)c(C(=O)NS(=O)(=O)N3CCC[C@@H](OC)C3)cc2F)CC4)CCN1C` [Example 286, 2-(dimethylamino)-5-fluoro-4-(8-((R)-3-(methoxymethyl)-4-methylpiperazin-1-yl)-7,10-dimethyl-5-oxo-1,3,4,5-tetrahydro-2H-chromeno[3,4-c]pyridine-3-carbonyl)-N-(((R)-3-methoxypiperidin-1-yl)sulfonyl)benzamide]: the IC50 in assay [1] was in the range of 100 to 1000 nM; in assay [2], 10 to 100 nM. Further, the “MTHFD1/MTHFD2 IC50 ratio” value in assay [2] is reported as “J (>30)”.

As to `COC[C@H]1CN(c2cc(Cl)c3c4c(c(=O)oc3c2C)CN(C(=O)c2cc(OC)c(C(=O)NS(=O)(=O)N(C3CC3)C3CC3)cc2F)CC4)CCN1C` [Example 297, (R)-4-(10-chloro-8-(3-(methoxymethyl)-4-methylpiperazin-1-yl)-7-methyl-5-oxo-1,3,4,5-tetrahydro-2H-chromeno[3,4-c]pyridine-3-carbonyl)-N-(N,N-dicyclopropylsulfamoyl)-5-fluoro-2-methoxybenzamide], the results for the IC50 in assay [1] and in assay [2] were 100 to 1000 nM and 10 to 100 nM, respectively. In assay [2], the “MTHFD1/MTHFD2 IC50 ratio” value is reported as “H (>9.0 to 30)”.

For `COC[C@H]1CN(c2cc(C)c3c4c(c(=O)oc3c2C)CN(C(=O)c2cc(OC(C)C)c(C(=O)NS(=O)(=O)N3CCCC3)c(C(F)(F)F)c2)CC4)CCN1C` [Example 161, (R)-2-isopropoxy-4-(8-(3-(methoxymethyl)-4-methylpiperazin-1-yl)-7,10-dimethyl-5-oxo-1,3,4,5-tetrahydro-2H-chromeno[3,4-c]pyridine-3-carbonyl)-N-(pyrrolidin-1-ylsulfonyl)-6-(trifluoromethyl)benzamide], the IC50 in assay [1] lay within 1000 to 5000 nM. In assay [2], the IC50 lay within 10 to 100 nM and the “MTHFD1/MTHFD2 IC50 ratio” value is “J (>30)”.

`COC[C@H]1CN(c2cc(C)c3c4c(c(=O)oc3c2C)CN(C(=O)c2ccc(C(=O)NS(=O)(=O)N3CCCC3)c(OC3C5CC6CC(C5)CC3C6)c2F)CC4)CCN1C` (stereo partly drawn) [Example 94, 2-((adamantan-2-yl)oxy)-3-fluoro-4-(8-((R)-3-(methoxymethyl)-4-methylpiperazin-1-yl)-7,10-dimethyl-5-oxo-1,3,4,5-tetrahydro-2H-chromeno[3,4-c]pyridine-3-carbonyl)-N-(pyrrolidin-1-ylsulfonyl)benzamide]: the IC50 in assay [1] lay within 10 to 100 nM. Moreover, in assay [2], the IC50 is 10 to 100 nM and the “MTHFD1/MTHFD2 IC50 ratio” value is “F (<3)”.

Regarding `COC[C@H]1CN(c2ccc3c4c(c(=O)oc3c2C)CN(C(=O)c2ccc(C(=O)NS(=O)(=O)C3(C)CC3)c(N3C5CCC3CC5)c2)CC4)CCN1C` [Example 17, (R)-2-(7-azabicyclo[2.2.1]heptan-7-yl)-4-(8-(3-(methoxymethyl)-4-methylpiperazin-1-yl)-7-methyl-5-oxo-1,3,4,5-tetrahydro-2H-chromeno[3,4-c]pyridine-3-carbonyl)-N-((1-methylcyclopropyl)sulfonyl)benzamide], in assay [1], the IC50 fell in the range of 1 to 10 nM. Also, in assay [2], the IC50 lay in the range of 10 to 100 nM and the “MTHFD1/MTHFD2 IC50 ratio” value is reported as “F (<3)”.

For the compound `COC[C@H]1CN(c2cc(C)c3c4c(c(=O)oc3c2C)CN(C(=O)c2ccc(C(=O)NS(=O)(=O)N3CCCC3)c(OCCC(F)(F)F)c2F)CC4)CCN1C` [Example 222, (R)-3-fluoro-4-(8-(3-(methoxymethyl)-4-methylpiperazin-1-yl)-7,10-dimethyl-5-oxo-1,3,4,5-tetrahydro-2H-chromeno[3,4-c]pyridine-3-carbonyl)-N-(pyrrolidin-1-ylsulfonyl)-2-(3,3,3-trifluoropropoxy)benzamide], the IC50 in assay [1] was in the range of 10 to 100 nM. In assay [2], the IC50 lay within 1 to 10 nM and the “MTHFD1/MTHFD2 IC50 ratio” value was “F (<3)”.

As for `COC[C@H]1CN(c2cc(C)c3c4c(c(=O)oc3c2C)CN(C(=O)c2ccc(C(=O)NS(=O)(=O)N3C5CCC3CC5)cc2Cl)CC4)CCN1C` [Example 185, (R)-N-((7-azabicyclo[2.2.1]heptan-7-yl)sulfonyl)-3-chloro-4-(8-(3-(methoxymethyl)-4-methylpiperazin-1-yl)-7,10-dimethyl-5-oxo-1,3,4,5-tetrahydro-2H-chromeno[3,4-c]pyridine-3-carbonyl)benzamide], in assay [1], the IC50 is over 5000 nM. In addition, in assay [2], the IC50 was 100 to 1000 nM and the “MTHFD1/MTHFD2 IC50 ratio” value is listed as “H (>9.0 to 30)”.

For the compound `COC[C@H]1CN(c2cc(Cl)c3c4c(c(=O)oc3c2C)CN(C(=O)c2cc(N(C)C)c(C(=O)NS(=O)(=O)N3CCC5(COC5)C3)cc2F)CC4)CCN1C` [Example 273, (R)-N-((2-oxa-6-azaspiro[3.4]octan-6-yl)sulfonyl)-4-(10-chloro-8-(3-(methoxymethyl)-4-methylpiperazin-1-yl)-7-methyl-5-oxo-1,3,4,5-tetrahydro-2H-chromeno[3,4-c]pyridine-3-carbonyl)-2-(dimethylamino)-5-fluorobenzamide], in assay [1], the IC50 was 100 to 1000 nM. Further, in assay [2], the IC50 was in the range of 10 to 100 nM and the “MTHFD1/MTHFD2 IC50 ratio” value was “H (>9.0 to 30)”.

As to `COC[C@H]1CN(c2ccc3c4c(c(=O)oc3c2C)CN(C(=O)c2ccc(C(=O)NS(=O)(=O)N(C)C(C)C)c(O[C@@H]3C[C@@H]5C[C@@H]5C3)c2F)CC4)CCN1C` [Example 64, 2-(((1R,3r,5S)-bicyclo[3.1.0]hexan-3-yl)oxy)-3-fluoro-N-(N-isopropyl-N-methylsulfamoyl)-4-(8-((R)-3-(methoxymethyl)-4-methylpiperazin-1-yl)-7-methyl-5-oxo-1,3,4,5-tetrahydro-2H-chromeno[3,4-c]pyridine-3-carbonyl)benzamide], the IC50 in assay [1] and in assay [2] was 1 to 10 nM throughout. The “MTHFD1/MTHFD2 IC50 ratio” value in assay [2] is listed as “F (<3)”.

With `CCOc1c(C(=O)NS(=O)(=O)N2C3CCC2CC3)ccc(C(=O)N2CCc3c(c(=O)oc4c(CC)c(N5CCN(C)[C@@H](COC)C5)ccc34)C2)c1F` [Example 215, (R)-N-((7-azabicyclo[2.2.1]heptan-7-yl)sulfonyl)-2-ethoxy-4-(7-ethyl-8-(3-(methoxymethyl)-4-methylpiperazin-1-yl)-5-oxo-1,3,4,5-tetrahydro-2H-chromeno[3,4-c]pyridine-3-carbonyl)-3-fluorobenzamide], the values for the IC50 in assay [1] and in assay [2] were 10 to 100 nM and 100 to 1000 nM, respectively. The “MTHFD1/MTHFD2 IC50 ratio” value in assay [2] was “F (<3)”.

For the compound `COC[C@H]1CN(c2cc(C)c3c4c(c(=O)oc3c2C)CN(C(=O)c2cc(F)c(C(=O)NS(=O)(=O)N(C)C)c(N3CC5CC5C3)c2)CC4)CCN1C` (stereo partly drawn) [Example 28, 2-(3-azabicyclo[3.1.0]hexan-3-yl)-N-(N,N-dimethylsulfamoyl)-6-fluoro-4-(8-((R)-3-(methoxymethyl)-4-methylpiperazin-1-yl)-7,10-dimethyl-5-oxo-1,3,4,5-tetrahydro-2H-chromeno[3,4-c]pyridine-3-carbonyl)benzamide], the IC50 in assay [1] and in assay [2] was 1 to 10 nM each time. Besides, in assay [2], the “MTHFD1/MTHFD2 IC50 ratio” value was “F (<3)”.

In the case of `CCOc1c(C(=O)NS(=O)(=O)N(C2CC2)C2CC2)ccc(C(=O)N2CCc3c(c(=O)oc4c(C)c(N5CCN(C)[C@@H](COC)C5)cc(C)c34)C2)c1F` [Example 231], the IC50 in assay [1] fell in the range of 10 to 100 nM. Further, in assay [2], the IC50 lay in the range of 10 to 100 nM and the “MTHFD1/MTHFD2 IC50 ratio” value was “F (<3)”.

Take `COC[C@H]1CN(c2cc(C)c3c4c(c(=O)oc3c2C)CN(C(=O)c2ccc(C(=O)NS(=O)(=O)C3(C)CC3)c(N3CCC[C@@H]3C)c2)CC4)CCN1C` [Example 125, 4-(8-((R)-3-(methoxymethyl)-4-methylpiperazin-1-yl)-7,10-dimethyl-5-oxo-1,3,4,5-tetrahydro-2H-chromeno[3,4-c]pyridine-3-carbonyl)-N-((1-methylcyclopropyl)sulfonyl)-2-((S)-2-methylpyrrolidin-1-yl)benzamide]: the 50% inhibitory concentration (IC50) in assay [1] was in the range of 1 to 10 nM. In addition, in assay [2], the IC50 fell in the range of 10 to 100 nM and the “MTHFD1/MTHFD2 IC50 ratio” value was “F (<3)”.

Take `COC[C@H]1CN(c2cc(C)c3c4c(c(=O)oc3c2C)CN(C(=O)c2ccc(C(=O)NS(=O)(=O)N(C)C3CCCC3)c(OC)c2F)CC4)CCN1C` [Example 238]: the IC50 in assay [1] fell in the range of 100 to 1000 nM; in assay [2] it was 10 to 100 nM. Also, in assay [2], the “MTHFD1/MTHFD2 IC50 ratio” value was “H (>9.0 to 30)”.
